Assays:
Format in all cases: cell-based, human
[1] = test system: MM1s multiple myeloma cell line; assay: Macrophage phagocytosis assay, MM1s tumor cells pre-cultured with proteasome inhibitor (FIGS. 1A, 2A)
Description: (§1) FIGS. 1A and 1B show results when the multiple myeloma cell lines MM1s and H929 are cultured in the presence of the proteasome inhibitor bortezomib (at either 1, 5 or 10 nM) for 48 hours. The 0 result represents phagocytosis of cells that were not treated with bortezomib. Cells are then washed; macrophages and SIRPαFc (at 1, 5 or 100 nM) or Control Fc are added and the mixture is then subjected to the phagocytosis assay described herein.
(§2) FIGS. 2A and 2B show results from an experiment in which bortezomib is replaced by the proteasome inhibitor carfilzomib, which is then investigated as described in FIGS. 1A-1B. The 0 result represents phagocytosis of cells that were not treated with carfilzomib.
(§3) To generate the results represented in FIGS. 1A-1B and 2A-2B, heparinized whole blood was obtained from normal healthy human donors (Biological Specialty Corporation) and informed consent was obtained from all donors. Peripheral blood mononuclear cells (PBMCs) were isolated over Ficoll-Paque Plus density gradient (GE Healthcare) and CD14+ monocytes were isolated from PBMCs by positive selection using CD14 antibody-coated MicroBead separation (Miltenyi Biotec). […] Phagocytosis was assessed as % VPD450+ cells of live, single CD14+CD11b+macrophages by flow cytometry. […]

[2] = test system: H929 multiple myeloma cell line; assay: Macrophage phagocytosis assay, H929 tumor cells pre-cultured with proteasome inhibitor (FIGS. 1B, 2B)
Description: as §1, §2, §3

[3] = test system: SU-DHL-6 diffuse large cell lymphoma (DLBCL) cell line; assay: Macrophage phagocytosis assay, SU-DHL-6 tumor cells pre-cultured with proteasome inhibitor (FIGS. 3A-3F); conditions: SU-DHL-6 cultured 48 hours in bortezomib (10 nM), carfilzomib (10 nM) or ixazomib (25 nM); CD47 blockade drug at 100 nM, 2 hours co-culture; untreated vs proteasome inhibitor treated tumor cells, unpaired t-test
Description: (§4) FIGS. 3A-3F show the effect of proteasome inhibition on phagocytosis mediated by CD47 blockade, from an experiment supplemental to that represented in FIGS. 1A-1B and 2A-2B. The diffuse large cell lymphoma (DLBCL) cell line SU-DHL-6 and the multiple myeloma (MM) cell line MM1.S were cultured in the presence or absence of the proteasome inhibitors bortezomib (10 nM), carfilzomib (10 nM) or ixazomib (25 nM) for 48 hours. Cells were thereafter washed; macrophages and SIRPαFc proteins, CD47 monoclonal antibody (CD47 mAb) or Control Fc (at 100 nM) were added, and the mixture was then subjected to the phagocytosis assay as described infra.
(§5) To generate the results represented in FIGS. 3A-3F, macrophages were prepared from human peripheral blood mononuclear cells (PBMCs) obtained from healthy donors (BioreclamationIVT); informed consent was obtained from all donors. CD14+ monocytes were isolated by positive selection using the EasySep® human monocyte isolation kit (Stemcell Technologies). Monocytes were differentiated into macrophages by culturing the cells in X-VIVO 15 media (Lonza) supplemented with human m-CSF (PeproTech) for 10 days. Macrophages were primed with human IFNγ (PeproTech) one day prior to the phagocytosis assay. 48 hours prior to the phagocytosis assay, bortezomib (10 nM), carfilzomib (10 nM) or ixazomib (25 nM) were added to tumor cells. On the day of the phagocytosis assay, tumor cells (MM1.S or SU-DHL-6) were labeled with Violet Proliferation Dye 450 (BD Biosciences) and cultured with IFNγ-primed macrophages. Macrophages and tumor cells were co-cultured for 2 hours in the presence of 100 nM SIRPαFc (V region of human SIRPα variant 2 fused with IgG1 Fc), SIRPαFc (V region of human SIRPα variant 2 fused with IgG4 Fc), vSIRPαFc (high affinity CV1 variant of V region of human SIRPα fused with mutated IgG4) [SEQ ID No. 12], CD47 monoclonal antibody B6H12 [SEQ ID Nos. 13 and 14] or Control Fc (wild type human IgG4 with stabilized hinge). Cells were subsequently stained with a viability dye, APC-conjugated anti-human CD14 (61D3, eBioscience), and PE-conjugated anti-human CD11b (ICRF44, eBioscience). Macrophages were identified as live, single, CD14+CD11b+ cells. Doublets were excluded by SSC-W and SSC-H discrimination. Percent phagocytosis was assessed as the percent of macrophages that were VPD450+. Unpaired t-tests comparing the percentage of phagocytosis of untreated vs proteasome inhibitor treated tumor cells were performed (*P≤0.05, **P≤0.01, ***P≤0.001).

[4] = test system: MM1.S multiple myeloma (MM) cell line; assay: Macrophage phagocytosis assay, MM1.S tumor cells pre-cultured with proteasome inhibitor (FIGS. 3A-3F); conditions: MM1.S cultured 48 hours in bortezomib (10 nM), carfilzomib (10 nM) or ixazomib (25 nM); CD47 blockade drug at 100 nM, 2 hours co-culture; untreated vs proteasome inhibitor treated tumor cells, unpaired t-test
Description: as §4, §5

Molecule | SIRPαFc-mediated phagocytosis (% VPD450+ of live, single CD14+CD11b+ macrophages) ([1]; MM1s cultured in 10 nM carfilzomib for 48 hours, at all concentrations of SIRPαFc tested (1, 5 or 100 nM), versus cells not treated with carfilzomib) | SIRPαFc-mediated phagocytosis (% VPD450+ of live, single CD14+CD11b+ macrophages) ([2]; H929 cultured in 10 nM carfilzomib for 48 hours, at all concentrations of SIRPαFc tested (1, 5 or 100 nM), versus cells not treated with carfilzomib) | Percent phagocytosis mediated by CD47 blockade (percent of macrophages VPD450+) [3] | Percent phagocytosis mediated by CD47 blockade (percent of macrophages VPD450+) [4] | SIRPαFc-mediated phagocytosis (% VPD450+ of live, single CD14+CD11b+ macrophages) ([1]; MM1s cultured in bortezomib (1, 5 or 10 nM) for 48 hours, then macrophages and SIRPαFc (1, 5 or 100 nM), versus cells not treated with bortezomib) | SIRPαFc-mediated phagocytosis (% VPD450+ of live, single CD14+CD11b+ macrophages) ([2]; H929 cultured in bortezomib (1, 5 or 10 nM) for 48 hours, then macrophages and SIRPαFc (1, 5 or 100 nM), versus cells not treated with bortezomib)
CC(C)C[C@H](NC(=O)[C@H](CCc1ccccc1)NC(=O)CN1CCOCC1)C(=O)N[C@@H](Cc1ccccc1)C(=O)N[C@@H](CC(C)C)C(=O)[C@@]1(C)CO1 [carfilzomib] | significant increase in SIRPαFc-mediated phagocytosis | significant increase in SIRPαFc-mediated phagocytosis | significantly increased SIRPαFc-mediated phagocytosis or CD47 mAb-mediated phagocytosis | significantly increased SIRPαFc-mediated phagocytosis or CD47 mAb-mediated phagocytosis |  | 
SIRPαFc (V region of human SIRPα variant 2 fused with IgG4 Fc): V region of human SIRPα variant 2 fused with IgG4 Fc |  |  | significant increase in phagocytosis | significant increase in phagocytosis |  | 
CC(C)C[C@H](NC(=O)CNC(=O)c1cc(Cl)ccc1Cl)B(O)O [ixazomib] |  |  | significantly increased SIRPαFc-mediated phagocytosis or CD47 mAb-mediated phagocytosis | significantly increased SIRPαFc-mediated phagocytosis or CD47 mAb-mediated phagocytosis |  | 
CC(C)C[C@H](NC(=O)[C@H](Cc1ccccc1)NC(=O)c1cnccn1)B(O)O [bortezomib] |  |  | significantly increased SIRPαFc-mediated phagocytosis or CD47 mAb-mediated phagocytosis | significantly increased SIRPαFc-mediated phagocytosis or CD47 mAb-mediated phagocytosis | increased SIRPαFc-mediated phagocytosis | increased SIRPαFc-mediated phagocytosis
vSIRPαFc: high affinity CV1 variant of V region of human SIRPα fused with mutated IgG4, SEQ ID No. 12 (protein, listed as Homo sapiens) EEELQIIQPDKSVSVAAGESAILHCTITSLFPVGPIQWFRGAGPARVLIYNQRQGPFPRVTTVSETTKRENMDFSISISNITPADAGTYYCIKFRKGSPDTEFKSGAGTELSVRAKPSESKYGPPCPPCPAPPVAGPSVFLFPPKPKDTLMISRTPEVTCVVVDVSQEDPEVQFNWYVDGVEVHNAKTKPREEQFNSTYRVVSVLTVLHQDWLNGKEYKCKVSNKGLPSSIEKTISKAKGQPREPQVYTLPPSQEEMTKNQVSLTCLVKGFYPSDIAVEWESNGQPENNYKTTPPVLDSDGSFFLYSRLTVDKSRWQEGNVFSCSVMHEALHNHYTQKSLSLSLGK |  |  | significant increase in phagocytosis | significant increase in phagocytosis |  | 
CD47 mAb: CD47 monoclonal antibody B6H12, variable regions SEQ ID Nos. 13 and 14 (antibody, V domains shown, Murine) VH: EVQLVESGGDLVKPGGSLKLSCAASGFTFSGYGMSWVRQTPDKRLEWVATITSGGTYTYYPDSVKGRFTISRDNAKNTLYLQIDSLKSEDTAIYFCARSLAGNAMDYWGQGTSVTVSS VL: DIVMTQSPATLSVTPGDRVSLSCRASQTISDYLHWYQQKSHESPRLLIKFASQSISGIPSRFSGSGSGSDFTLSINSVEPEDVGVYYCQNGHGFPRTFGGGTKLEIK |  |  | significant increase in phagocytosis | significant increase in phagocytosis |  | 
